Data on twelve compounds can be found in patent US20090069336A1, “PYRIMIDOTHIOPHENE COMPOUNDS” (VERNALIS (CAMBRIDGE) LIMITED., priority 2004, published 2009).

Like-named read-outs stand apart in the source and are kept apart here. Where only a bound is given, the exact number is not on record here.

One assay has as its target T1, human full-length HSP90 (Homo sapiens, UniProt P08238).
T1 construct: E. coli expressed human full-length HSP90 protein, purified >95%; made in house; host or cells: E. coli
The assay is described as follows: Fluorescence polarization assay (competitive displacement of probe RBT0051001-FAM from HSP90). The format is binding. The source says:
Fluorescence Polarization Assay
Fluorescence polarization {also known as fluorescence anisotropy} measures the rotation of a fluorescing species in solution, where the larger molecule the more polarized the fluorescence emission. When the fluorophore is excited with polarized light, the emitted light is also polarized. The molecular size is proportional to the polarization of the fluorescence emission.
The fluoroscein-labelled probe —RBT0051001-FAM—
binds to HSP90 {full-length human, full-length yeast or N-terminal domain HSP90} and the anisotropy {rotation of the probe:protein complex} is measured.
Test compound is added to the assay plate, left to equilibrate and the anisotropy measured again. Any change in anisotropy is due to competitive binding of compound to HSP90, thereby releasing probe.
Chemicals are of the highest purity commercially available and all aqueous solutions are made up in AR water. • 1) Costar 96-well black assay plate #3915 • 2) Assay buffer of (a) 100 mM Tris pH7.4; (b) 20 mM KCl; (c) 6 mM MgCl2. Stored at room temperature. • 3) BSA (bovine serum albumen) 10 mg/ml (New England Biolabs # B9001S) • 4) 20 mM probe in 100% DMSO stock concentration. Stored in the dark at RT. Working concentration is 200 nM diluted in AR water and stored at 4° C. Final concentration in assay 80 nM. • 5) E. coli expressed human full-length HSP90 protein, purified >95% (see, e.g., Panaretou et al., 1998) and stored in 50 μL aliquots at −80° C.
• 1) Add 100 μl 1× buffer to wells 11A and 12A (=FP BLNK) • 2) Prepare assay mix—all reagents are kept on ice with a lid on the bucket as the probe is light-sensitive.
• 3) Aliquot 100 μl assay mix to all other wells • 4) Seal plate and leave in dark at room temp for 20 minutes to equilibrate Compound Dilution Plate—1×3 dilution series • 1) In a clear 96-well v-bottom plate-{# VWR 007/008/257} add 10 μl 100% DMSO to wells B1 to H11 • 2) To wells A1 to A11 add 17.5 μl 100% DMSO • 3) Add 2.5 μl cpd to A1. This gives 2.5 mM {50×} stock cpd-assuming cpds 20 mM. • 4) Repeat for wells A2 to A10. Control in columns 11 and 12. • 5) Transfer 5 μl from row A to row B—not column 12. Mix well. • 6) Transfer 5 μl from row B to row C. […] In column 11 {provides standard curve} only add compound B11-H11. Add 2 μl of 100 mM standard cpd to wells B12-H12 {is positive control} • 13) The Z′ factor is calculated from zero controls and positive wells. It typically gives a value of 0.7-0.9.
The compounds tested in the above assay were assigned to one of two activity ranges, namely A=<10 μM; B=>10 μM, and those assignments are reported above.

Assay [1] is described as follows: Sulforhodamine B (SRB) growth inhibition / growth arrest assay. The assay is classed as cell-based. Particulars: cell line not stated. Here is the method:
A growth inhibition assay was also employed for the evaluation of candidate HSP90 inhibitors:
Assessment of cytotoxicity by Sulforhodamine B (SRB) assay: calculation of 50% inhibitory concentration (IC50).
• 1) Determine cell number by haemocytometer. • 2) Using an 8 channel multipipettor, add 160 μl of the cell suspension (3600 cells/well or 2×10^4 cells/ml) to each well of a 96-well microtitre plate. • 3) Incubate overnight at 37° C. in a CO2 incubator. […]
• 8) Tip off medium into sink and immerse plate slowly into 10% ice cold trichloroacetic acid (TCA). […] Leave for 15 mins. • 12) Wash off unbound SRB stain with four washes of 1% acetic acid. • 13) Dry plates in incubator. • 14) Solubilise SRB using 100 μl of 10 mM Tris base and put plates on plate shaker for 5 mins. • 15) Determine absorbance at 540 nm using a plate reader. Calculate mean absorbance for quadruplicate wells and express as a percentage of value for control, untreated wells. • 16) Plot % absorbance values versus log drug concentration and determine the IC50.

Where [2] appears, read: activity range stated in each example, read-out: activity in the fluorescence polarization assay.
Setting [3] is: Table 1, read-out: Hsp90 FP IC50.

T1 sequence (P08238 whole entry): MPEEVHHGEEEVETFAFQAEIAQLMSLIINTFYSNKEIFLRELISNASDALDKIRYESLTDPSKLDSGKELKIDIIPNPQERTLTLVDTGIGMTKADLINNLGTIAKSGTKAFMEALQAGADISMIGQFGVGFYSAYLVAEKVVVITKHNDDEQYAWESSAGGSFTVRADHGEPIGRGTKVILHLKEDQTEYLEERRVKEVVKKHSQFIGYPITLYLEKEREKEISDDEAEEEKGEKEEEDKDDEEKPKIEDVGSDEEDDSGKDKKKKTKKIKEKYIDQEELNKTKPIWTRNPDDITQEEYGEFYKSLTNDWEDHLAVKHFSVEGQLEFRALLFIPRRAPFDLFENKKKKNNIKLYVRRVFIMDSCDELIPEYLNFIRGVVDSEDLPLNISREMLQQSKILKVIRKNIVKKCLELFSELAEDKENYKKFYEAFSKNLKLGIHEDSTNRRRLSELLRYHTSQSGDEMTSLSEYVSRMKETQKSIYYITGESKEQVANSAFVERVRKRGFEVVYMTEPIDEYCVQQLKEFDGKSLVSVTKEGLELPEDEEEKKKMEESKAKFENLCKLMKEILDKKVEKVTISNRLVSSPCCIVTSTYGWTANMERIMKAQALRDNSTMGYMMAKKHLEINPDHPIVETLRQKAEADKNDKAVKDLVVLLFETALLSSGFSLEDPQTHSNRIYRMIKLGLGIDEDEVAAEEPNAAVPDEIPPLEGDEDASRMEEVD

Consider `CCN(CC)CCOc1cc(-c2nc(N)nc3sc(-c4cc(C)n[nH]4)cc23)c(Cl)cc1Cl` [Example 35, 4-[2,4-dicholoro-5-(2-diethylamino-ethoxy)-phenyl]-6-(5-methyl-2H-pyrazol-3-yl)-thieno[2,3-d]pyrimidine-2-ylamine], for which the IC50 on human full-length HSP90 (setting [2]) is less than 10 µM.

As to `CCONC(=O)c1cc2c(-c3ccc(Cl)cc3Cl)nc(N)nc2s1` [Example 15], at human full-length HSP90 (setting [3]), the IC50 was less than 10 µM.

Regarding `Cc1cc(-c2cc3c(-c4ccc(Cl)cc4Cl)nc(N)nc3s2)[nH]n1` [Example 19, 4-(2,4-Dichloro-phenyl)-6-(5-methyl-2H-pyrazol-3-yl)-thieno[2,3-d]pyrimidin-2-ylamine], the IC50 on human full-length HSP90 (setting [2]) was less than 10 µM.

Take `Cc1ccc(-c2nc(N)nc3sc(C#N)cc23)c(C)c1` [Example 7, 2-Amino-4-(2,4-dimethylphenyl)-thieno[2,3-d]pyrimidine-6-carbonitrile]: the IC50 at human full-length HSP90 (setting [2]) is less than 10 µM.

Turning to `Cc1ccc(-c2nc(N)nc3sccc23)c(C)c1` [Example 27, 4-(2,4-Dimethyl-phenyl)-thieno[2,3-d]pyrimidine-2-ylamine], on human full-length HSP90 (setting [2]), the IC50 is less than 10 µM.

Consider `CC(=O)NCc1cc2c(-c3ccc(Cl)cc3Cl)nc(N)nc2s1` [Example 26, N-[2-Amino-4-(2,4-dichloro-phenyl)-thieno[2,3-d]pyrimidin-6-ylmethyl]-acetamide], for which the IC50 at human full-length HSP90 (setting [2]) was less than 10 µM.

Take `CCN(CC)CCOc1cc(-c2nc(N)nc3sc(C#N)cc23)c(Cl)cc1Cl` [Example 29, 2-Amino-4-[2,4-dichloro-5-(diethylamino-ethoxy)-phenyl]-thieno[2,3-d]pyrimidine-6-carbonitrile]: the IC50 on human full-length HSP90 (setting [2]) was less than 10 µM.

As to `Cc1ccc(-c2nc(N)nc3sc(-c4ncon4)cc23)c(C)c1` [Example 10, 4-(2,4-dimethyl-phenyl)-6-[1,2,4]oxadiazol-3-yl-thieno[2,3-d]pyrimidin-2-ylamine], the figures for the IC50 (on human full-length HSP90 (setting [2]); in assay [1]) were less than 10 µM and less than 50 µM, respectively.

As to `CCCNC(=O)c1ccc(C)c(-c2nc(N)nc3sc(C(=O)NOC)cc23)c1` [Example 17], at human full-length HSP90 (setting [3]), the IC50 is less than 10 µM.

`CC(C)(O)c1cc2c(-c3ccc(Cl)cc3Cl)nc(N)nc2s1` [Example 3, 2-[2-Amino-4-(2,4-dichloro-phenyl)-thieno[2,3-d]pyrimidin-6-yl]-propan-2-ol]: the IC50 on human full-length HSP90 (setting [2]) was more than 10 µM.

`CCC(=O)c1cc2c(-c3ccc(Cl)cc3Cl)nc(N)nc2s1` [Example 8, 1-[2-Amino-4-(2,4-dichloro-phenyl)-thieno[2,3-d]pyrimidine-6-yl]-propan-1-one]: the IC50 at human full-length HSP90 (setting [2]) was less than 10 µM.

Take `Cc1cn[nH]c1-c1cc2c(-c3ccc(Cl)cc3Cl)nc(N)nc2s1` [Example 20, 4-(2,4-Dichloro-phenyl)-6-(4-methyl-2H-pyrazol-3-yl)-thieno[2,3-d]pyrimidin-2-ylamine]: on human full-length HSP90 (setting [2]), the IC50 was less than 10 µM.
